# From patent publication US8143227B2, “Azithromycin for treatment of skin disorders” (priority 2008, dated 2012)
# Read-outs that look alike come from different tables or passages of the source.
# Assays:
# [1] = Azithromycin levels in sebum (Sebutape patches); assay type: in vivo, human; settings: for concentration at 42 day: human, sebum, oral
# Method: Sebum was collected from the subjects of Example 1 by use of Sebutape® (CuDerm Corporation, Dallas Tex.). On study days 0, 21, 42, and 70, each subject placed three Sebutape® adhesive patches on each of the forehead, and left and right cheeks on the skin of the face and left the patches in place for 30 to 40 minutes. The patches were then removed, folded in half with the adhesive side inward, placed in a sealed glass vial, and frozen at −20° C. to −70° C. […] Each Sebutape® patch was analyzed for quantity in nanograms of azithromycin.
# acne [2] = settings: 500 mg three times per week; Kapadia 2004; cited from earlier work
# acne [3] = settings: 500 mg/day for 4 days in four cycles every 10 days; Gruber 1998; cited from earlier work
# acne [4] = settings: Kus 2005, cited from earlier work
# P. acnes = settings: concentration that inhibits 90% of growth of the organism; Neu 1991; cited from earlier work
# [5] = Gastrointestinal side effects monitoring; assay type: in vivo, human; settings: 40, 80, or 120 mg/day; 42 days treatment plus 4 weeks after cessation
# From the text: The subjects of Example 1 were monitored for the presence of gastrointestinal adverse effects during the six weeks (42 days) of treatment with the daily low-dose azithromycin of the invention and for an additional 4 weeks (total of 70 days) following cessation of treatment.
# [6] = Additional low dosage regimens, adverse effects; assay type: in vivo, human
# Method: The numbers of facial inflammatory lesions: papules, pustules, and nodules, and non-inflammatory lesions: open and closed comedones, were counted at the beginning of treatment and again after 3 weeks of treatment and after 6 weeks of treatment. Additionally, nodules were counted independently at each of these visits. Additionally, during the treatment study, each subject reported the occurrence of any adverse effects. The results of this study for the 25 mg/day regimen are shown in Table 7 and for the 80 mg every other day regiment in Table 8. In these tables, the numbers represent the mean number of lesions in the four subjects of each group. The % decrease from Day 0 was calculated as the mean of the differences for each of the parameters (inflammatory lesions, non-inflammatory lesion and nodules) for each individual subject on Day 21 and Day 42.
# Staphylococcus aureus = settings: Neu 1991; relative to P. acnes; cited from earlier work
# inflammatory acne = settings: 250 mg three times per week, cited from earlier work
# acne [7] = settings: Elewski, cited from earlier work
smiles,measurement,setting,value
"CC[C@H]1OC(=O)[C@H](C)[C@@H](O[C@H]2C[C@@](C)(OC)[C@@H](O)[C@H](C)O2)[C@H](C)[C@@H](O[C@@H]2O[C@H](C)C[C@H](N(C)C)[C@H]2O)[C@](C)(O)C[C@@H](C)CN(C)[C@H](C)[C@@H](O)[C@]1(C)O [Azithromycin, 9-deoxo-9a-aza-9a-methyl-9a-homoerythromycin A]",Sebum Concentration (median) ng per sample,"[1]; 40 mg/day, Day 0",0.00 ng per sample
same,Sebum Concentration (median),"[1]; 40 mg/day, Day 0, ng per sample divided by 1.38 mg",.00 ng/mg
same,Sebum Concentration (median),"[1]; 40 mg/day, Day 0, ng/mg times […]",.00 ng/µL
same,Sebum Concentration (median) ng per sample,"[1]; 40 mg/day, Day 21",0.00 ng per sample
same,Sebum Concentration (median),"[1]; 40 mg/day, Day 21, ng per sample divided by 1.38 mg",.00 ng/mg
same,Sebum Concentration (median),"[1]; 40 mg/day, Day 21, ng/mg times […]",.00 ng/µL
same,Sebum Concentration (median) ng per sample,"[1]; 40 mg/day, Day 42",0.19 ng per sample
same,Sebum Concentration (median),"[1]; 40 mg/day, Day 42, ng per sample divided by 1.38 mg",.14 ng/mg
same,Sebum Concentration (median),"[1]; 40 mg/day, Day 42, ng/mg times […]",.12 ng/µL
same,Sebum Concentration (median) ng per sample,"[1]; 40 mg/day, Day 70 (28 days after last dose)",0.00 ng per sample
same,Sebum Concentration (median),"[1]; 40 mg/day, Day 70, ng per sample divided by 1.38 mg",.00 ng/mg
same,Sebum Concentration (median),"[1]; 40 mg/day, Day 70, ng/mg times […]",.00 ng/µL
same,Sebum Concentration (median) ng per sample,"[1]; 80 mg/day, Day 0",0.00 ng per sample
same,Sebum Concentration (median),"[1]; 80 mg/day, Day 0, ng per sample divided by 1.38 mg",.00 ng/mg
same,Sebum Concentration (median),"[1]; 80 mg/day, Day 0, ng/mg times […]",.00 ng/µL
same,Sebum Concentration (median) ng per sample,"[1]; 80 mg/day, Day 21",0.79 ng per sample
same,Sebum Concentration (median),"[1]; 80 mg/day, Day 21, ng per sample divided by 1.38 mg",.57 ng/mg
same,Sebum Concentration (median),"[1]; 80 mg/day, Day 21, ng/mg times […]",.50 ng/µL
same,Sebum Concentration (median) ng per sample,"[1]; 80 mg/day, Day 42",0.84 ng per sample
same,Sebum Concentration (median),"[1]; 80 mg/day, Day 42, ng per sample divided by 1.38 mg",.61 ng/mg
same,Sebum Concentration (median),"[1]; 80 mg/day, Day 42, ng/mg times […]",.53 ng/µL
same,Sebum Concentration (median) ng per sample,"[1]; 80 mg/day, Day 70 (28 days after last dose)",0.00 ng per sample
same,Sebum Concentration (median),"[1]; 80 mg/day, Day 70, ng per sample divided by 1.38 mg",.00 ng/mg
same,Sebum Concentration (median),"[1]; 80 mg/day, Day 70, ng/mg times […]",.00 ng/µL
same,Sebum Concentration (median) ng per sample,"[1]; 120 mg/day, Day 0",0.00 ng per sample
same,Sebum Concentration (median),"[1]; 120 mg/day, Day 0, ng per sample divided by 1.38 mg",.00 ng/mg
same,Sebum Concentration (median),"[1]; 120 mg/day, Day 0, ng/mg times […]",.00 ng/µL
same,Sebum Concentration (median) ng per sample,"[1]; 120 mg/day, Day 21",0.76 ng per sample
same,Sebum Concentration (median),"[1]; 120 mg/day, Day 21, ng per sample divided by 1.38 mg",.55 ng/mg
same,Sebum Concentration (median),"[1]; 120 mg/day, Day 21, ng/mg times […]",.48 ng/µL
same,Sebum Concentration (median) ng per sample,"[1]; 120 mg/day, Day 42",0.88 ng per sample
same,Sebum Concentration (median) ng per sample,"[1]; 120 mg/day, Day 42, listed as azithromycin",about 0.88 ng per sample
same,Sebum Concentration (median),"[1]; 120 mg/day, Day 42, ng per sample divided by 1.38 mg",.64 ng/mg
same,Sebum Concentration (median),"[1]; 120 mg/day, Day 42, ng/mg times […]",.55 ng/µL
same,Sebum Concentration (median) ng per sample,"[1]; 120 mg/day, Day 70 (28 days after last dose)",0.00 ng per sample
same,Sebum Concentration (median),"[1]; 120 mg/day, Day 70, ng per sample divided by 1.38 mg",.00 ng/mg
same,Sebum Concentration (median),"[1]; 120 mg/day, Day 70, ng/mg times […]",.00 ng/µL
same,concentration at 42 day,"[1]; 120 mg/day, Day 42, ng per sample divided by 1.38 mg, read-out: Sebum Concentration (median) ng/mg",~640 ng/g
same,concentration at 42 day,"[1]; 120 mg/day, Day 42, ng/mg times 0.87 mg/μl, read-out: Sebum Concentration (median)",~550 ng/mL
same,subjects with adverse events,acne [2],11%
same,treatment of acne,acne [2],successful treatment
same,efficacy in the treatment of acne,acne [3],efficacious
same,gastrointestinal side effect rate,acne [3],about 10%
same,efficacy in the treatment of acne,"acne [4]; 500 mg 3, then 2 consecutive days per week, then once weekly, 4 weeks each",as effective as doxycycline
same,subjects who left the study due to gastrointestinal side effects,acne [4]; of 25 subjects administered azithromycin,two
same,MIC against P. acnes,P. acnes,0.15 µg/mL
same,gastrointestinal side effects,[5],no gastrointestinal side effects were reported
same,adverse effects reported,"[6]; 25 mg per day for 6 weeks, migraine headache on day 21, deemed not related",only one adverse effect was reported
same,"typical antibiotic side effects (abdominal cramping, nausea, vomiting, diarrhea or vaginitis)",[6]; 25 mg per day or 80 mg every other day for 6 weeks,no typical antibiotic side effects reported
same,adverse effects reported,[6]; 80 mg every other day for 6 weeks,no adverse effects were reported
same,MIC against Staphylococcus aureus,Staphylococcus aureus,higher than that for P. acnes
same,cases of gastrointestinal discomfort,inflammatory acne; 21 subjects,3 cases
same,cases of vaginitis,inflammatory acne; 21 subjects,one
same,subjects who experienced side effects,inflammatory acne; 21 subjects,19%
same,efficacy in treating lesions of inflammatory acne,inflammatory acne; Fernandez-Obregon 2000,as effective as other antibiotics tested
same,improvement in acne,"acne [7]; 500 mg day 1, then 250 mg/day for 4 days, from 1st and 15th of each month, 3 months",all patients treated with this azithromycin regimen showed improvement
same,subjects who experienced gastrointestinal side effects,acne [7]; same regimen,only one of twenty subjects
